The values below are quoted from earlier work in patent US20100209332A1, “Nonaqueous Chlorine Dioxide-Generating Compositions and Methods Related Thereto” (BASF Catalysts LLC, priority 2009, published 2010).

Values joined by “and” are separate entries in the source; they are usually repeats but may differ in a detail not shown here. Identical values can stand only once.

For this data set the following is noted: sources: † clippercontrols.com URL, § Handbook of Chemistry and Physics, 52nd Ed.
Regarding `CC(C)O` [Isopropanol], the “Dielectric Constant, at 18-25 deg C.” value was 18.3 and 20.1.

On to `O` [Water], for which the “Dielectric Constant, at 18-25 deg C.” value is 80.4 and 78.5. Take `CCCCO` [Butyl alcohol]: the “Dielectric Constant, at 18-25 deg C.” value is reported as 17.1-17.8^†,§. As for `CCCCCCCC(=O)O` [Octanoic acid], the “Dielectric Constant, at 18-25 deg C.” value is given as 3.2^†. Turning to `OCC(O)CO` [Glycerine], the “Dielectric Constant, at 18-25 deg C.” value is recorded as 42.5^†,§. Consider `CCCCCCCC/C=C\CCCCCCCC(=O)O` [Oleic acid], for which the “Dielectric Constant, at 18-25 deg C.” value was 2.5^†,§. `CC(O)CO` (stereo not shown) [Propylene glycol]: the “Dielectric Constant, at 18-25 deg C.” value is on record as 32^†,§.
